In patent US4853410A, “Hydroxyacetic acid derivatives for the treatment of diabetic complications” (Pfizer Inc., priority 1987, dated 1989):
Read-outs that look alike come from different tables or passages of the source.

Biological target: T1, aldose reductase enzyme (Homo sapiens, UniProt P15121)
T1 construct: partially purified aldose reductase enzyme obtained from human placenta; from tissue; host or cells: human placenta
Test: in vitro inhibition of aldose reductase enzyme activity (procedure of U.S. Pat. No. 3,821,383, based on Hayman et al.)
Assay type: biochemical
Description: The substrate employed is partially purified aldose reductase enzyme obtained from human placenta.

## C[C@@H]1C[C@@](O)(CC(=O)O)c2cc(Cl)ccc2O1 (relative stereo) [Example 15, 6-Chloro-c-4-hydroxy-r-2-methylchroman-4-acetic Acid]
read-out: IC50, inhibition concentration calculated to show 50% inhibition of enzyme activity, partially purified aldose reductase from human placenta
  IC50: ~860 nM

## C[C@@H]1C[C@@](O)(CC(=O)O)c2cc([N+](=O)[O-])c(Cl)cc2O1 (relative stereo) [Example 82, 7-Chloro-6-nitro-c-4-hydroxy-r-2-methylchroman-4-acetic acid]
  IC50: ~51 nM

## C[C@@H]1C[C@@](O)(CC(=O)O)c2cc(Cl)c(Cl)cc2S1(=O)=O (relative stereo) [Example 113, 6,7-Dichloro-c-4-hydroxy-r-2-methyl-3,4-dihydro-2H-1-thianaphthalene-4-acetic Acid 1,1-Dioxide]
At 10^-5 M, partially purified aldose reductase from human placenta, read-out: percent inhibition of enzyme activity
  inhibition at 10 µM: 37%
